The values that follow come from patent publication US10662159B2, “ABHD6 and dual ABHD6/MGL inhibitors and their uses” (MAKScientific, LLC, priority 2017, dated 2020).

As usually defined, the IC50 is the concentration at which inhibition is half-maximal.

Common to all, as to assay type: biochemical
Assay [1] concerns the target Rat ΔTM FAAH (Rattus norvegicus (Rat), UniProt P97612). Nature of the assay: Fluorescent assay for rat ΔTM FAAH (AAMCA substrate). The conditions noted are these: ΔTM rFAAH, AAMCA 20 μM; read-out: rFAAH Inhibition IC50. As for the experimental part:
(§1) Certain compounds were tested for their ABHD6 and dual ABHD6/MGL inhibitory activity, which is expressed as % of inhibition or IC50 values in Table 1. The percentage of inhibition describes the percentage by which the inhibitor reduces the velocity/rate of 2-AG hydrolysis by ABHD6, and MGL or AEA hydrolysis by FAAH. The IC50 is the concentration of the inhibitor, which results in 50% inhibition of the velocity/rate of 2-AG hydrolysis by ABHD6 or MGL. The IC50 is the concentration of the inhibitor, which results in 50% inhibition of the velocity/rate of AEA hydrolysis by FAAH. The lower the IC50 values, the higher its inhibitory activity. A detailed description of the methods used to test inhibitory activity of compounds is given below.
Example 79. Preparation of Transmembrane Domain-Deleted Rat FAAH (ΔTM rFAAH)
Rat ΔTM FAAH was expressed in E. coli cells and purified using the procedure disclosed by Patricelli et al. Biochemistry (1998) 37: 15177-15187.
Example 81. Fluorescent Assay Protocol for Rat ΔTM FAAH
(§2) The fluorescence reading at the 3 hour time point (linear enzyme kinetics) was used to calculate percent inhibition based on control assays without inhibitor present. All FAAH assays were performed in triplicate for each inhibitor concentration, and IC50 values determined using Prizm software (GraphPad Software, Inc.).

Assay [2] concerns the target hMGL (Homo sapiens (Human), UniProt Q99685). Nature of the assay: Fluorescent assay for hMGL (AHMMCE substrate hydrolysis). The conditions noted are these: E. coli lysate containing hMGL, read-out: hMGL Inhibition IC50. As for the experimental part:
(§3) Certain compounds were tested for their ABHD6 and dual ABHD6/MGL inhibitory activity, which is expressed as % of inhibition or IC50 values in Table 1. The percentage of inhibition describes the percentage by which the inhibitor reduces the velocity/rate of 2-AG hydrolysis by ABHD6, and MGL or AEA hydrolysis by FAAH. […] The lower the IC50 values, the higher its inhibitory activity. A detailed description of the methods used to test inhibitory activity of compounds is given below.
Preparation of Human MAGL (hMAGL)
Fluorescent Assay Protocol for hMGL
This medium throughput assay involved a 96-well plate format in which hMGL activity was monitored by the hydrolysis of the substrate […] (AHMMCE) to form the fluorescent product, coumarin. […] Upon the addition of AHMMCE, the reaction was incubated at 25° C. for 120 min; fluorescence readings were taken every 15 min at 360 nm/460 nm (λexcitation/λemission) using a Synergy HT Plate Reader (Bio-Tek, Winooski, Vt.). […] External standards were used to convert relative fluorescence units to the amount of 4-methylcoumarin formed. All MGL assays were performed in triplicate for each inhibitor concentration, and IC50 values were calculated using Prizm software (GraphPad Software, Inc., San Diego, Calif.).

For assay [3], the target named is hFAAH (Homo sapiens (Human), UniProt O00519). Nature of the assay: Fluorescent assay for hFAAH. The note with it: MBP ΔTM hFAAH, procedure as for rFAAH; read-out: hFAAH Inhibition IC50. As for the experimental part:
as §1
Example 80. Preparation of Human FAAH in Fusion with N-Terminal Maltose Binding Tag (MBP ΔTM hFAAH)
Human FAAH without putative transmembrane domain following maltose binding protein was expressed in E. coli cells using pMALcE4 vector Alapafuja et al J. Med. Chem. (2012) 55: 10074-89.
as §2
Example 82. Fluorescent Assay Protocol for hFAAH
Procedure was followed as described for rFAAH.

The target in assay [4] is hABHD6 (Homo sapiens (Human), UniProt Q9BV23). Description: Fluorescent assay for hABHD6 (AHMMCE substrate hydrolysis). The note with it: membrane fraction containing full-length hABHD6, 20 μM AHMMCE; read-out: ABHD6 Inhibition IC50. The protocol:
as §3
Fluorescent Assays Protocol for hABHD6
Initial Fluorescent Inhibition Assay (3-Point)—
In each well of a 96-well plate 8 μL of membrane fraction containing full-length hABHD6 (1 μg total protein) was mixed with 168 μL of assay buffer (50 mM Tris-HCl, pH 7.6), and 20 μL of diluted compound (diluted in a dilution buffer consisting of 50% DMSO/50% assay buffer v/v). Each plate was incubated at RT for 15 minutes before adding 4 μL of 1 mM AHMMCE substrate (final concentration of 20 μM AHMMCE and final volume of 200 μL). The reaction was allowed to proceed for 1 hr at RT before the fluorescence was read at λex 360 nm and λem 460 nm and the inhibition calculated. Each experiment can test 8 compounds at three concentrations (usually 10 μM, 1 μM, and 100 nM).
IC50 Determination Assay (8-Point)—
A more detailed assay with an extended range tests compounds over 8 concentrations depending on the pre-determined approximate IC50 value from the initial screen. […] The assay was conducted in 96 well plate with each well containing the same reaction mixture detailed above in the 3-point screen. The relative fluorescence is quantified into coumarin produced by using a standard curve of HMMC in triplicate on each plate. Results are normalized to the negative control wells and the IC50 is determined using a non-linear regression curve fit in Prism, version 5 (GraphPad, San Diego, Calif.).

Structures are written as SMILES. Bounds are passed on as bounds.

hABHD6, sequence (Q9BV23 whole entry): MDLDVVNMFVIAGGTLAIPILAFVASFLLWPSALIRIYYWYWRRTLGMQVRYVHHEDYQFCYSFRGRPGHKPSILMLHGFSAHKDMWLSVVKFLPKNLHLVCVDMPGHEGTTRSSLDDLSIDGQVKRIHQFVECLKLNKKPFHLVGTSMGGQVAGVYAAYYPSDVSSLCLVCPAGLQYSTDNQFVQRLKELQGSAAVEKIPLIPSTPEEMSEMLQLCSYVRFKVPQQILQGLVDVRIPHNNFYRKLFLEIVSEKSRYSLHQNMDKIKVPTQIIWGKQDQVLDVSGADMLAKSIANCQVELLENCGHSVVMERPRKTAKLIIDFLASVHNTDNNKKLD
hMGL, sequence (Q99685 whole entry): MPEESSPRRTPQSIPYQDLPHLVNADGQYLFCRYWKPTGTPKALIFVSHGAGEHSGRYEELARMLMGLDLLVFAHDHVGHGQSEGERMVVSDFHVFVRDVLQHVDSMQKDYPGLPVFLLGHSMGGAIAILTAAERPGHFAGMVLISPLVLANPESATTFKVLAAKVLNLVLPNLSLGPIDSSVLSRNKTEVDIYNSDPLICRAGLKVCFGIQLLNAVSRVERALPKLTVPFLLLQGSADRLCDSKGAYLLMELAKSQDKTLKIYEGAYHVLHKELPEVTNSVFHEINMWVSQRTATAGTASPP
Rat ΔTM FAAH, sequence (P97612 30-579): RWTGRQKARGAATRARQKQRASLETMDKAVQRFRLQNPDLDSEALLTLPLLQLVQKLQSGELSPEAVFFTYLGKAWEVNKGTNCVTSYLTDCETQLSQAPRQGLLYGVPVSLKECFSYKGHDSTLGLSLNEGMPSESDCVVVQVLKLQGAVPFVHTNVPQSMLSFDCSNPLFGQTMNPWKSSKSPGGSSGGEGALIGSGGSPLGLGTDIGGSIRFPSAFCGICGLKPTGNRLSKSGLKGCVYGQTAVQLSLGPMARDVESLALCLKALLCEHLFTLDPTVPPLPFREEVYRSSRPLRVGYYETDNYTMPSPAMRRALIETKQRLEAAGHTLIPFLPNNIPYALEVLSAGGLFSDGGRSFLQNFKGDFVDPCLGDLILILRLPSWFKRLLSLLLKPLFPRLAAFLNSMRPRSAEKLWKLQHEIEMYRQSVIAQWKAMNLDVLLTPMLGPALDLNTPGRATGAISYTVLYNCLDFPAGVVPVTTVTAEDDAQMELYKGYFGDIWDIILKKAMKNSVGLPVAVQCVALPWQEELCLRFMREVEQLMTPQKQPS
hFAAH, sequence (O00519 30-579): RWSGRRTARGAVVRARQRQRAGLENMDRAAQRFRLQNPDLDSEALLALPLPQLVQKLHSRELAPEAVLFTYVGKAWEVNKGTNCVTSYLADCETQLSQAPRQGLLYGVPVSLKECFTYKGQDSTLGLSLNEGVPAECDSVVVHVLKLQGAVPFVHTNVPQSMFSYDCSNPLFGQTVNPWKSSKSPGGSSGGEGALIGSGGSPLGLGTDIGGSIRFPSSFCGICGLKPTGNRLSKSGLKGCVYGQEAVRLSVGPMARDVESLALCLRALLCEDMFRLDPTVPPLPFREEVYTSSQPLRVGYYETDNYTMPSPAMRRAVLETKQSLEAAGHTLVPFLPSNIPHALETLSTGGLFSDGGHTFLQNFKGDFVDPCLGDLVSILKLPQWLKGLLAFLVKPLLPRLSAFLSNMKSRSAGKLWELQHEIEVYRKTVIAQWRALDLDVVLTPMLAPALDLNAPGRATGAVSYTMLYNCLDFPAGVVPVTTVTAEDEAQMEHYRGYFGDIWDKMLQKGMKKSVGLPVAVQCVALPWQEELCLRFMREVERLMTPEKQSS

`O=C(OC(C(F)(F)F)C(F)(F)F)N1CC[C@]2(C1)C[C@H](OC(c1ccc(F)cc1)c1ccc(F)cc1)C2` [Example 68, 1,1,1,3,3,3-Hexafluoropropan-2-yl (2s,4r)-2-(bis(4-fluorophenyl)methoxy)-6-azaspiro[3.4]octane-6-carboxylate]: the IC50 in assay [1] is 0.01 to 0.1 µM; in assay [2] it was 0.01 to 0.1 µM; in assay [3], over 1 µM; in assay [4] it was over 1 µM.

As to `O=C(OC(C(F)(F)F)C(F)(F)F)N1CCc2ccccc2[C@H]1c1ccccc1` [Example 2, 1,1,1,3,3,3-Hexafluoropropan-2-yl(R)-1-phenyl-3,4-dihydroisoquinoline-2(1H)-carboxylate], the IC50 in assay [1], in assay [2], in assay [3] and in assay [4] was over 1 µM each time.

In the case of `O=C(OC(C(F)(F)F)C(F)(F)F)N1Cc2cc(Br)cnc2C1` [Example 11, 1,1,1,3,3,3-Hexafluoropropan-2-yl 3-bromo-5,7-dihydro-6H-pyrrolo[3,4-b]pyridine-6-carboxylate], the IC50 is over 1 µM in assay [1], over 1 µM in assay [2], over 1 µM in assay [3] and 0.1 to 1 µM in assay [4].

As for `O=C(OC(C(F)(F)F)C(F)(F)F)N1CCc2ccccc2C1` [Example 1, 1,1,1,3,3,3-Hexafluoropropan-2-yl 3,4-dihydroisoquinoline-2(1H)-carboxylate], the half-maximal inhibitory concentration (IC50) in assay [1] is over 1 µM; in assay [2], over 1 µM; in assay [3] it was over 1 µM; in assay [4], 0.01 to 0.1 µM.

For `CCC1c2ccccc2CCN1C(=O)OC(C(F)(F)F)C(F)(F)F` (racemic) [Example 7, 1,1,1,3,3,3-Hexafluoropropan-2-yl 1-ethyl-3,4-dihydroisoquinoline-2(1H)-carboxylate], the IC50 in assay [1], in assay [2], in assay [3] and in assay [4] was over 1 µM throughout.

`CC1c2ccc(Br)cc2CN1C(=O)OC(C(F)(F)F)C(F)(F)F` (stereo not shown) [Example 15, 1,1,1,3,3,3-Hexafluoropropan-2-yl 5-bromo-1-methylisoindoline-2-carboxylate]: the IC50 in assay [1], in assay [2], in assay [3] and in assay [4] was over 1 µM each time.

As to `CC1(C)C2C(=O)N(OC(=O)N3CC4(CCC(Oc5cncc(F)c5)C4)C3)C(=O)C21` (stereo not shown) [Example 64, 6,6-Dimethyl-2,4-dioxo-3-azabicyclo[3.1.0]hexan-3-yl 6-((5-fluoropyridin-3-yl)oxy)-2-azaspiro[3.4]octane-2-carboxylate], the IC50 in assay [1] is over 1 µM; in assay [2], over 1 µM; in assay [3] it was over 1 µM; in assay [4] it was 0.01 to 0.1 µM.

Take `COc1ccc(-c2ccc3c(c2)CN(C(=O)OC(C(F)(F)F)C(F)(F)F)C3)cc1F` [Example 26, 1,1,1,3,3,3-Hexafluoropropan-2-yl 5-(3-fluoro-4-methoxyphenyl)isoindoline-2-carboxylate]: the IC50 in assay [1] is over 1 µM; in assay [2] it was over 1 µM; in assay [3], over 1 µM; in assay [4] it was 0.01 to 0.1 µM.

With `O=C(OC(C(F)(F)F)C(F)(F)F)N1Cc2ccc(Cl)nc2C1` [Example 14, 1,1,1,3,3,3-Hexafluoropropan-2-yl-2-chloro-5,7-dihydro-6H-pyrrolo[3,4-b]pyridine-6-carboxylate], the IC50 in assay [1] was over 1 µM; in assay [2], over 1 µM; in assay [3], over 1 µM; in assay [4], 0.1 to 1 µM.

For the compound `O=C(OC(C(F)(F)F)C(F)(F)F)N1CCc2cccc(Br)c2C1` [Example 4, 1,1,1,3,3,3-Hexafluoropropan-2-yl 8-bromo-3,4-dihydroisoquinoline-2(1H)-carboxylate], the IC50 is over 1 µM in assay [1], over 1 µM in assay [2], over 1 µM in assay [3] and 0.01 to 0.1 µM in assay [4].

`CC1(C)C2C(=O)N(OC(=O)N3CC4(CC(Oc5cccc(C(F)(F)F)c5)C4)C3)C(=O)C21` (stereo not shown) [Example 63, 6,6-Dimethyl-2,4-dioxo-3-azabicyclo[3.1.0]hexan-3-yl 6-(3-(trifluoromethyl)phenoxy)-2-azaspiro[3.3]heptane-2-carboxylate]: the IC50 is over 1 µM in assay [1], over 1 µM in assay [2], over 1 µM in assay [3] and 0.01 to 0.1 µM in assay [4].

As for `COc1cccc2c1CN(C(=O)OC(C(F)(F)F)C(F)(F)F)C2` [Example 19, 1,1,1,3,3,3-Hexafluoropropan-2-yl 4-methoxyisoindoline-2-carboxylate], the IC50 in assay [1] is over 1 µM; in assay [2], over 1 µM; in assay [3] it was over 1 µM; in assay [4], 0.01 to 0.1 µM.

Take `O=C(OC(C(F)(F)F)C(F)(F)F)N1CCc2c(Br)cccc2C1` [Example 16, 1,1,1,3,3,3-Hexafluoropropan-2-yl 5-bromo-3,4-dihydroisoquinoline-2(1H)-carboxylate]: the half-inhibitory concentration (IC50) was over 1 µM in assay [1], over 1 µM in assay [2], over 1 µM in assay [3] and 0.01 to 0.1 µM in assay [4].

As for `O=C(OC(C(F)(F)F)C(F)(F)F)N1CC2(CC(Oc3cccc(C(F)(F)F)c3)C2)C1` [Example 52, 1,1,1,3,3,3-Hexafluoropropan-2-yl 6-(3-(trifluoromethyl)phenoxy)-2-azaspiro [3.3]heptane-2-carboxylate], the IC50 in assay [1] is over 1 µM; in assay [2] it was 0.01 to 0.1 µM; in assay [3], over 1 µM; in assay [4] it was 0.01 to 0.1 µM.

Consider `O=C(OC(C(F)(F)F)C(F)(F)F)N1CCc2ccc(Br)cc2C1` [Example 18, 1,1,1,3,3,3-Hexafluoropropan-2-yl 7-bromo-3,4-dihydroisoquinoline-2(1H)-carboxylate], for which the IC50 in assay [1] is over 1 µM; in assay [2], over 1 µM; in assay [3], over 1 µM; in assay [4] it was 0.1 to 1 µM.

With `O=C(OC(C(F)(F)F)C(F)(F)F)N1CC2(CC(Oc3cccc(F)c3)C2)C1` [Example 53, 1,1,1,3,3,3-Hexafluoropropan-2-yl-6-(3-fluorophenoxy)-2-azaspiro[3.3]heptane-2-carboxylate], the IC50 in assay [1] was over 1 µM; in assay [2], 0.01 to 0.1 µM; in assay [3], over 1 µM; in assay [4], 0.01 to 0.1 µM.
